What all share (assay type): functional
For one assay, the target named is Lysine--tRNA ligase (Plasmodium falciparum (isolate 3D7), UniProt Q8IDJ8). As to the kind of experiment: MMV: KRS recombinant Plasmodium falciparum Lysyl-tRNA-synthetase, assay with yeast tRNA, ATP, and lysine and 3 uM MMV malaria box compound, assay read out with kinase glo as % inhibition. (In general: In Kinase-Glo more light means more ATP remaining.)
Assay [1] deals with T1, Cdk-related protein kinase 6 (Plasmodium falciparum, UniProt O77239).
T1 sequence (O77239 whole entry): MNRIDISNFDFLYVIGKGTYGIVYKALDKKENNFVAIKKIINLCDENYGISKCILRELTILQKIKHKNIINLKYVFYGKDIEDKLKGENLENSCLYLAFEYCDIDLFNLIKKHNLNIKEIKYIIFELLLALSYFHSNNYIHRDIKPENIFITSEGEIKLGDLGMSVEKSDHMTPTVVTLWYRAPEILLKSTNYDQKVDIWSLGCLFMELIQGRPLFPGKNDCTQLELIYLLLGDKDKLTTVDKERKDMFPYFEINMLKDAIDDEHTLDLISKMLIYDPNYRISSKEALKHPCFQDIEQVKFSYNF
As to the kind of experiment: Final concentrations were 1.5 uM ATP, 5 mM MnCl2, and 15 ug/ml PK6 in a buffer of 100 mM Tris-HCl (pH 7.5). 50 ug/mL MBP was provided as the substrate; 10 uM staurosporine was used as a control inhibitor. Incubation time was 3 hours and 40 minutes.The catalytic activity of each kinase was considered proportional to ATP consumed, as determined from measurements of residual [ATP] with the luciferase-based reagent Kinase-Glo (Promega) following incubation. Luminescence (proportional to residual [ATP]) was measured on the plate readers FLx800 (BioTek Instruments, Winooski, VT, USA) and MicroBeta2.

The next assay concerns the target T2, Proline--tRNA ligase (Plasmodium falciparum (isolate 3D7), UniProt Q8I5R7).
T2 sequence (Q8I5R7 whole entry): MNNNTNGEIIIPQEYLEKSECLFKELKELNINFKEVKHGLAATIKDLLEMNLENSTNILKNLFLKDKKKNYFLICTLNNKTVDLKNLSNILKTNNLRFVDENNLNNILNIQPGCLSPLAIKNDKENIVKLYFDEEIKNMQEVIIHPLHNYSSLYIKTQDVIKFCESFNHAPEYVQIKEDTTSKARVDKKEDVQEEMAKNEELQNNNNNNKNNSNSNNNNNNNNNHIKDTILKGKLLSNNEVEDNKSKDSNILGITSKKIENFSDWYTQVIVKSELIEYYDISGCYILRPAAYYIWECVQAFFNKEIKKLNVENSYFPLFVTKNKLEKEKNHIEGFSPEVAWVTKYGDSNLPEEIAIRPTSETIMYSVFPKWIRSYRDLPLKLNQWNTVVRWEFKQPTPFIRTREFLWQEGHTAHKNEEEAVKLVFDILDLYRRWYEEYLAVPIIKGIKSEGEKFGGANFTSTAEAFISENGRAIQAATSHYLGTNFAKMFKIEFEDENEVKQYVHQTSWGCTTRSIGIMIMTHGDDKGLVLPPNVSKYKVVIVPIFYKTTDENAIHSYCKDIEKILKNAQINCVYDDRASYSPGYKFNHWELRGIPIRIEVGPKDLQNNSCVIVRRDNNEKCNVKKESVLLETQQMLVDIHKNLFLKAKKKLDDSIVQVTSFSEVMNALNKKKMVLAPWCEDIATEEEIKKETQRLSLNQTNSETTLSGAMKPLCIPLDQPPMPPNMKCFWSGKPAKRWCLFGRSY
As to the kind of experiment: MMV: ProRS recombinant Plasmodium falciparum Prolyl-tRNA-synthetase, assay with yeast tRNA, ATP, and proline and 3 uM MMV malaria box compound, assay read out with kinase glo as % inhibition.

Assay [2] deals with Calcium-dependent protein kinase 1 (Plasmodium falciparum, UniProt P62344). Nature of the assay: MMV: CDPK1 Protein kinase inhibition assay using recombinant PfCDPK1, syntide 2 peptide substrate, ATP and KinaseGlo to measure % inhibition at 1 uM MMV box compound.
Assay [3] concerns the target T3, Calcium-dependent protein kinase 4 (Plasmodium falciparum (isolate 3D7), UniProt Q8IBS5).
T3 sequence (Q8IBS5 whole entry): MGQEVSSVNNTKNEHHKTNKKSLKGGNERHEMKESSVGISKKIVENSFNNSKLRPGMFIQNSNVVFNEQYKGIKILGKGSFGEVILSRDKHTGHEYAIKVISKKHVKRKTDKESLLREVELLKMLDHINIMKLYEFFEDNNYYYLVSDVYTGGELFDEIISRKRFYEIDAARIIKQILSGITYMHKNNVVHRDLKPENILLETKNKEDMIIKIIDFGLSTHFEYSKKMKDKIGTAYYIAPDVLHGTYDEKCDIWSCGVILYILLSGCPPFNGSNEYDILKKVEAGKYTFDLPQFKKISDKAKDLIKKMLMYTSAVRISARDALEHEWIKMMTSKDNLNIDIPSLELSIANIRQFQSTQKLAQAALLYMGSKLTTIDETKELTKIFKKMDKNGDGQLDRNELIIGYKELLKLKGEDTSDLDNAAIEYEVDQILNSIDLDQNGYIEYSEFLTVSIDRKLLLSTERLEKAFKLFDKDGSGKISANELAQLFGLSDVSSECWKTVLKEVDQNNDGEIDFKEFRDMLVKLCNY
As to the kind of experiment: MMV: CDPK4 Protein kinase inhibition assay using recombinant PfCDPK4, syntide2 peptide substrate, ATP and KinaseGlo to measure % inhibition at 1 uM MMV box compound.

Assay [4] has as its target T4, Putative uncharacterized protein pk7 (Plasmodium falciparum, UniProt O96214).
T4 sequence (O96214 whole entry): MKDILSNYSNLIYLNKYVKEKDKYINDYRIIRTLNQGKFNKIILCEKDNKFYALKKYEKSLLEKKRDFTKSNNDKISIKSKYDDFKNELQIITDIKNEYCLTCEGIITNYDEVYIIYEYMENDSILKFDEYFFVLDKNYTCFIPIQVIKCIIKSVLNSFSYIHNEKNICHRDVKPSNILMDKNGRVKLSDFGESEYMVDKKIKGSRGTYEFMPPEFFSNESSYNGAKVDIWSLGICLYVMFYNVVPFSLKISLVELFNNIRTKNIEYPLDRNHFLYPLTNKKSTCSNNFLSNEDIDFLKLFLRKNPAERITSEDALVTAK
Nature of the assay: Final concentrations were 1 uM ATP, 2 mM DTT, 20 mM MgCl2, 2 mM MnCl2, 0.01% BSA, and 6 ug/ml PK7, in a buffer of 20 mM Tris-HCl (pH 7.5). The enzyme itself was the only substrate present (since autophosphorylation occurs); 100 uM 1NA-PP1 was used as a control inhibitor. Incubation time was 3 hours.

Assay [5] addresses T5, Mitogen-activated protein kinase (Plasmodium falciparum, UniProt Q25917).
T5 sequence (Q25917 whole entry): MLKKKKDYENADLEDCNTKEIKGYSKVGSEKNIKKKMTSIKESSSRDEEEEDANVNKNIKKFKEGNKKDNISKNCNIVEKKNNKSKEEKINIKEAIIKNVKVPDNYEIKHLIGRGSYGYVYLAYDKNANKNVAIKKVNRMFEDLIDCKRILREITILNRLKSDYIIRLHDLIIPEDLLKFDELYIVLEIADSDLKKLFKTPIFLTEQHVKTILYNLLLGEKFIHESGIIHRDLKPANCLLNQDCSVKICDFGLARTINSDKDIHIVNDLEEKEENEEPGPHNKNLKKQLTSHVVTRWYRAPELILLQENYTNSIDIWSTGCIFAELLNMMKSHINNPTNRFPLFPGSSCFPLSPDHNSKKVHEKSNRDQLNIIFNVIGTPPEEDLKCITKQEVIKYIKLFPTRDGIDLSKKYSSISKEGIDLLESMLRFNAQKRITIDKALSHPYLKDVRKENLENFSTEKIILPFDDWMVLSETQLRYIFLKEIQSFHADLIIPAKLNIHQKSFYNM
As to the kind of experiment: Final concentrations were 1 uM ATP, 0.5 mM DTT, 1 mM MgCl2, 0.5 mg/mL BSA, and 10 ug/ml MAP2 in a buffer of 50 mM HEPES (pH 7.0). 0.5 mg/mL histone III-S served as the substrate (13); 100 uM AMP-PNP, an ATP analog, was used as a control inhibitor. Incubation time was 4 hours.

As a reminder, the IC50 is the concentration that gives 50% inhibition.

Chain of Lysine--tRNA ligase (Q8IDJ8 whole entry): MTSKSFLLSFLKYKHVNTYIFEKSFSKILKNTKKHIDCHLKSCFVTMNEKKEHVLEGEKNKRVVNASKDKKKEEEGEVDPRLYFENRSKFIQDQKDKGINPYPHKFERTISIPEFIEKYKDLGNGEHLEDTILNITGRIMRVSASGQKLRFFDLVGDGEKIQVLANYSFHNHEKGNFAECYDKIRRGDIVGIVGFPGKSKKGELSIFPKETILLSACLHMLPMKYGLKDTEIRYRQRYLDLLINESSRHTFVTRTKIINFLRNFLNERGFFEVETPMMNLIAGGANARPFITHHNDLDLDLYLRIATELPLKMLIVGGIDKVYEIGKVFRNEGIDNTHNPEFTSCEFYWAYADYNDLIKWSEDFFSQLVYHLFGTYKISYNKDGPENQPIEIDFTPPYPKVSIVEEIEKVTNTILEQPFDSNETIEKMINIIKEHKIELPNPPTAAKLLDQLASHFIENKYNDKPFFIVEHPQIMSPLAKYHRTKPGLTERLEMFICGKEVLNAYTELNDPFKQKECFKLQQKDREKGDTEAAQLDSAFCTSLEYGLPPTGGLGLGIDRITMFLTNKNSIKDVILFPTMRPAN
Chain of Calcium-dependent protein kinase 1 (P62344 whole entry): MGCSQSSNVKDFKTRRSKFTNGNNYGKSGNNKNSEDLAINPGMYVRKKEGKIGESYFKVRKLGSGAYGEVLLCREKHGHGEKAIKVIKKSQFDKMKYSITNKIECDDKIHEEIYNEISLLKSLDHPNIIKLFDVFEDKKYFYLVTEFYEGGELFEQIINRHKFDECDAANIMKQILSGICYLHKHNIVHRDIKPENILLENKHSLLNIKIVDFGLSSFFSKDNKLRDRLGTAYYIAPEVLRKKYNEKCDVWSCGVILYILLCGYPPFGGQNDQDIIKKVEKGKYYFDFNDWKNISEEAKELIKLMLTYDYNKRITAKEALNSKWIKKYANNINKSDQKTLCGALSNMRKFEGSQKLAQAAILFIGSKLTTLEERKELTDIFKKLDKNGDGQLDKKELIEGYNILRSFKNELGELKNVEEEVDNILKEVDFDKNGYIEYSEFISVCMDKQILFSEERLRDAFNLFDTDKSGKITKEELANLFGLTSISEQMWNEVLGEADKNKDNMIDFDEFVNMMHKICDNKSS

Consider `CN(C)c1ccc(N2C(N)=NC(N)=NC2(C)C)cc1`, for which the 50% inhibitory concentration (IC50) on Lysine--tRNA ligase is over 2500 nM; in assay [1], over 1000 nM; at Proline--tRNA ligase, over 2500 nM; in assay [2], over 1000 nM; in assay [3], over 1000 nM; in assay [4], over 1000 nM. This molecule also registered an IC50 in assay [5] of over 1000 nM.

On to `CCN(CC)c1cc(C)c2cc(NC(=O)c3cccc(OC)c3)ccc2n1`, for which the concentration for half-maximal inhibition (IC50) was over 2500 nM on Lysine--tRNA ligase; over 1000 nM in assay [1]; over 2500 nM at Proline--tRNA ligase; over 1000 nM in assay [2]; over 1000 nM in assay [3]; over 1000 nM in assay [4]. The same molecule had a half-inhibitory concentration (IC50) in assay [5] of over 1000 nM.

As for `O=C(Nc1ccc(N2CCN(Cc3ccccc3)CC2)cc1)c1cccs1`, the IC50 at Lysine--tRNA ligase was over 2500 nM; in assay [1] it was over 1000 nM; at Proline--tRNA ligase, over 2500 nM; in assay [2], over 1000 nM; in assay [3], over 1000 nM; in assay [4] it was over 1000 nM. Further, in assay [5], the IC50 was over 1000 nM.

Regarding `CCOC(=O)C1=C(C)N=c2sc(=Cc3ccccc3O)c(=O)n2C1c1ccc(OC)c2ccccc12` (stereo not drawn), the half-inhibitory concentration (IC50) was over 2500 nM on Lysine--tRNA ligase; over 1000 nM in assay [1]; over 2500 nM at Proline--tRNA ligase; over 1000 nM in assay [2]; over 1000 nM in assay [3]; over 1000 nM in assay [4]. This molecule also yielded an IC50 in assay [5] of over 1000 nM.

As to `COc1ccccc1N1CCN(C(CNS(=O)(=O)c2ccc(Cl)cc2)c2cccnc2)CC1` (stereo not drawn), the IC50 at Lysine--tRNA ligase was over 2500 nM; in assay [1] it was over 1000 nM; on Proline--tRNA ligase, over 2500 nM; in assay [2], over 1000 nM; in assay [3] it was over 1000 nM; in assay [4], over 1000 nM. The molecule further registered an IC50 in assay [5] of over 1000 nM.

Consider `CC(C)(C)CC(C)(C)NCC(O)COc1ccc(Cl)cc1Cl` (stereo not drawn), for which the IC50 at Lysine--tRNA ligase is over 2500 nM; in assay [1], over 1000 nM; at Proline--tRNA ligase, over 2500 nM; in assay [2], over 1000 nM; in assay [3] it was over 1000 nM; in assay [4], over 1000 nM. This molecule registered an IC50 in assay [5] of over 1000 nM.

With `COc1ccc(NC(=O)C2c3ccccc3C(=O)N(CC(C)C)C2c2cccs2)cc1` (stereo not drawn), the IC50 at Lysine--tRNA ligase was over 2500 nM; in assay [1] it was over 1000 nM; at Proline--tRNA ligase, over 2500 nM; in assay [2] it was over 1000 nM; in assay [3], over 1000 nM; in assay [4], over 1000 nM. The molecule further displayed an IC50 in assay [5] of over 1000 nM.

Consider `Cc1cc(NC(=O)c2cccc(C(F)(F)F)c2)n(-c2nc(-c3ccc4c(c3)OCO4)cs2)n1`, for which the 50% inhibitory concentration (IC50) on Lysine--tRNA ligase is over 2500 nM; in assay [1] it was over 1000 nM; at Proline--tRNA ligase, over 2500 nM; in assay [2] it was over 1000 nM; in assay [3], over 1000 nM; in assay [4], over 1000 nM. The molecule also yielded an IC50 in assay [5] of over 1000 nM.

As for `COc1cccc(Cn2c(Oc3ccccc3)nc3c2c(=O)n(C)c(=O)n3C)c1`, the 50% inhibitory concentration (IC50) on Lysine--tRNA ligase is over 2500 nM; in assay [1], over 1000 nM; on Proline--tRNA ligase, over 2500 nM; in assay [2], over 1000 nM; in assay [3], over 1000 nM; in assay [4] it was over 1000 nM. In assay [5], the half-maximal inhibitory concentration (IC50) was over 1000 nM.

With `CCCn1c(=N)c(C(=O)NC2CCCCC2)cc2c(=O)n3cccc(C)c3nc21`, the half-inhibitory concentration (IC50) on Lysine--tRNA ligase was over 2500 nM; in assay [1], over 1000 nM; on Proline--tRNA ligase, over 2500 nM; in assay [2] it was over 1000 nM; in assay [3], over 1000 nM; in assay [4], over 1000 nM. The IC50 in assay [5] is over 1000 nM.

On to `Nc1ccc(-c2nc3cc(Cc4ccc5[nH]c(-c6ccc(N)cc6)nc5c4)ccc3[nH]2)cc1`, for which the IC50 on Lysine--tRNA ligase is over 2500 nM; in assay [1] it was over 1000 nM; at Proline--tRNA ligase, over 2500 nM; in assay [2], over 1000 nM; in assay [3], over 1000 nM; in assay [4], over 1000 nM. For the same molecule, the half-inhibitory concentration (IC50) in assay [5] was over 1000 nM.

Turning to `CCOC(=O)c1cnc2ccc(CC)cc2c1O`, the half-maximal inhibitory concentration (IC50) on Lysine--tRNA ligase was over 2500 nM; in assay [1], over 1000 nM; on Proline--tRNA ligase it was over 2500 nM; in assay [2] it was over 1000 nM; in assay [3], over 1000 nM; in assay [4] it was over 1000 nM. Further, in assay [5], the IC50 was over 1000 nM.

For `CCN(CC)CCCNc1ccnc2cc3ccccc3cc12`, the half-inhibitory concentration (IC50) on Lysine--tRNA ligase was over 2500 nM; in assay [1], over 1000 nM; on Proline--tRNA ligase, over 2500 nM; in assay [2], over 1000 nM; in assay [3] it was over 1000 nM; in assay [4], over 1000 nM. For the same molecule, in assay [5], the IC50 is over 1000 nM.

Take `CN(C)c1ccc(N=Cc2ccc(N3CCOCC3)cc2)cc1`: the half-inhibitory concentration (IC50) is over 2500 nM at Lysine--tRNA ligase; over 1000 nM in assay [1]; over 2500 nM at Proline--tRNA ligase; over 1000 nM in assay [2]; over 1000 nM in assay [3]; over 1000 nM in assay [4]. The IC50 in assay [5] is over 1000 nM.
